Test results published in EP0340198B1, “Immunoassay for the detection of alpha-haloacetamides” (priority 1988, dated 1989).

Tests used:
[1] = test system: affinity column prepared from the serum of the first bleed of the rabbit immunized with the alachlor-IgG conjugate; assay: affinity column extraction of alachlor and analogs from human urine; format: binding
Protocol: Affinity Chromatography. The preparation of affinity columns using rabbit antisera was as follows: The rabbit IgG's were purified by passing 5 mL of the antiserum through a column containing 5 mL of the swelled protein A-agarose gel. By monitoring the absorbance at 280 nm in the column effluent, the non-bound proteins were removed by washing with PBS, and the IgG's were then eluted with acetic acid at pH 2.3 (0.58% acetic acid and 0.15 M NaCl). […] The reusable protein A-agarose column was stored in PBS containing 0.02% sodium azide at 4°C.
The protein A-purified IgG was immobilized onto Affigel-10 affinity support. Affigel-10 (5 mL) was washed 3 times with isopropyl alcohol and 3 times with cold distilled water in a Buchner funnel. The gel was then added to a solution of IgG (3 mL in 0.1 M HEPES buffer, pH 7.5) at 4°C. Following 4 hrs of stirring, the gel was precipitated by gentle centrifugation and washed with HEPES buffer (3 x 3 mL). The remaining active sites on the gel were blocked by resuspending the gel in water (2 mL) and adding ethanolamine HCl (0.5 mL, 1M), and stirring the mixture at 22°C for 1 hr. […] After binding the alachlor, the column was washed with water (2 mL/min) to remove unbound material and alachlor was eluted with 75% aqueous methanol.

[2] = test system: antibodies toward amidochlor; assay: inhibition ELISA for amidochlor; format: binding, rabbits; conditions: standard solutions at 10 and 50 ppb in DI water
Description: (§1) The generation of antibodies toward butachlor (2-chloro-2′,6′-diethyl-N-(butoxymethyl)acetanilide), amidochlor (2-chloro-2′,6′-diethyl-N-acetamidomethyl acetanilide), and metolachlor (2-chloro-2′-ethyl-6′-methyl-N-(2-methoxy-1-methylethyl)acetanilide) were accomplished following identical procedures as those described for alachlor. The individual 14C-labeled chloroacetanilide was covalently bound to HSA (human serum albumin) with AHT, and to sheep IgG with AMSA.
(§2) The hapten-IgG conjugates were used to immunize rabbits. The corresponding hapten-BSA conjugates were then utilized in checkerboard assays to determine the presence of desired antibodies in the antisera. An inhibition ELISA for butachlor was set up with antiserum, butachlor-HSA screening antigen, and butachlor. Similar assays were also set up for amidochlor and metolachlor.
(§3) The sensitivity of the inhibition ELISA for butachlor, amidochlor, and metolachlor was tested with respective standards prepared in DI water. Using the best antiserum, the butachlor ELISA produced an IC50 of 8 ppb.
(§4) The specificity of the ELISA for butachlor, amidochlor, and metolachlor were tested using standard solutions of alachlor, acetochlor, butachlor, amidochlor, metolachlor, and propachlor at concentrations of 10 and 50 ppb in DI water. At these concentrations, the ELISA assay for butachlor, amidochlor, and metolachlor was each inhibited only by the respective free hapten, and not by any of the other chloroacetanilides.

[3] = test system: antibodies toward metolachlor; assay: inhibition ELISA for metolachlor; format: binding, rabbits; conditions: standard solutions at 10 and 50 ppb in DI water
Description: as §1, §2, §3, §4

alachlor antibodies = assay: inhibition ELISA for alachlor (cross-reactivity studies); format: binding, rabbit; conditions: for reaction (cross-reactivity) with the antibodies, in words: relative to alachlor; for ELISA % Absorbance MEAN (n = 20): antisera from bleed seven
Protocol: Immunoassays. A known "checkerboard assay" was initially conducted with each serum sample after the first boost to detect the production of antibodies against alachlor. […] The next 7 rows received the subsequent dilutions of the screening antigen. The plate was covered with Parafilm and stored overnight at 4°C. The next morning, the unbound screening antigen was removed from the wells by washing three times with phosphate buffered saline solution (0.01 M phosphate buffer of pH 7.4, 0.15 M NaCl; PBS). The remaining active sites in the wells were blocked with PBS-8% non-fat dry milk solution, (NFDM, 0.3 mL) for 1 hr at 22°C. Serum, which had been stored at -20°C, was freshly thawed and serially diluted (one to two) from 1,000 to 64,000-fold using PBS-T (PBS containing 0.02% Tween 20). Starting with the most concentrated solution, 0.1 mL of the serum solution was pipetted into all 8 wells of column 1; the remaining columns received the subsequent dilutions of the serum solution. The plate was covered and incubated at 22°C for 1.5 hrs. Following triplicate washes of the wells with PBS-T, each of the wells received 0.1 mL of goat anti-rabbit gamma-globulin conjugated to horseradish peroxidase (GAR-HRP) freshly thawed and diluted 4,000 fold with PBS-1% NFDM. After a final wash cycle (4 times) with PBS-T, freshly prepared O-phenylene diamine (PDA) substrate solution (0.2 mL, 0.04 mg/mL PDA and 0.01% H₂O₂ in 0.05 M citric acid and 0.15 M sodium dibasic phosphate, pH 5.0) was dispensed into each of the wells and incubated in the dark at 22°C for 30-60 min. Sulfuric acid (4 N, 50 µL) was added to each of the wells to stop the reaction, and the final absorbances of the wells (490 nm) were recorded.
The inhibition ELISA required one additional step in the assay procedure described above. Equal volumes of the diluted serum and aqueous alachlor standard or unknown sample were mixed and preincubated at 22°C for 1 hr. This mixture (0.1 mL/well) was then analyzed in 6 replicate wells on the plate. The presence of free alachlor inhibited the binding of the antibody to the alachlor-BSA conjugate, resulting in an inhibition of the development of absorbance at 490 nm. The amount of free alachlor was indirectly proportional to the intensity of color developed. Levels of alachlor in unknown water samples were calculated based on the alachlor standards on the same plate. Alachlor standards (0, 0.2, 0.5, 1.0, 3.0, 5.0, and 8.0 ppb in deionized water) were stored at -20°C in 1-mL portions, and were freshly thawed for each assay.
Data Calculations. The lay-out of a typical 96-well microtiter plate is 8 rows of 12 columns in an inhibition ELISA assay for alachlor. The first 6 wells in the first column of wells were not coated with the screening antigen and served as the background wells. The first 6 wells in the remaining 7 columns of wells were reserved for the seven alachlor standards (0 to 8 ppb) listed above. The remaining wells in all 8 rows were used for the samples. The uncorrected absorbances of the wells determined by the Bio-tek reader were used in the following calculations. The median was calculated for the 6 replicate background wells and was then subtracted from the medians of the standards and samples. All the median values were divided by the median of the standard without alachlor (0 ppb) to generate percentages of absorbances. The percent absorbance of the alachlor standards was then plotted on the Y axis against the logarithm (base 10) of the actual concentrations of alachlor on the X axis. A hyperbolic curve was drawn through the standards, and the resulting standard curve was used to calculate the concentrations of alachlor in the unknown samples.
The calculations described above were usually carried out using a computer program.

With `CCOCN(C(=O)CCl)c1c(C)cccc1CC` [Acetochlor, acetochlor] the “% 14C Eluent (75% CH3OH)” value ([1]; 1.0 µg/2 mL human urine) was 38.0%, the “% 14C Wash (H2O)” value ([1]; 1.0 µg/2 mL human urine) was 61.0% and the “inhibition of the ELISA assay for amidochlor” value (“inhibition … for amidochlor” below) [2] was “not”. For the same compound, the “inhibition of the ELISA assay for metolachlor” value (“inhibition … for metolachlor” for short) [3] was “not”, the percent cross-reactivity (alachlor antibodies; bleed four) was 10% and the “cross-reactivity in the subsequent bleeds” value (alachlor antibodies; bleeds after bleed four) was “decreased slightly”. The “reaction (cross-reactivity) with the antibodies, in words” value (alachlor antibodies) was “little to no interaction”.

With `CCc1cccc(CC)c1N(COC)C(=O)CCl` [Alachlor, α-chloro-2′,6′-diethyl-N-methoxymethyl acetanilide] the “% 14C Eluent (75% CH3OH)” value ([1]; 0.1 µg/2 mL human urine) was 123.0%, the “% 14C Wash (H2O)” value ([1]; 0.1 µg/2 mL human urine) was 20.0% and the “% 14C Eluent (75% CH3OH)” value ([1]; 0.6 µg/2 mL human urine) was 69.0%. For the same compound, the “% 14C Wash (H2O)” value ([1]; 0.6 µg/2 mL human urine) was 11.0%, the “% 14C Eluent (75% CH3OH)” value ([1]; 1.4 µg/2 mL human urine) was 48.0% and the “% 14C Wash (H2O)” value ([1]; 1.4 µg/2 mL human urine) was 37.0%. The “inhibition … for amidochlor” value [2] was “not”, the “inhibition … for metolachlor” value [3] was “not” and the “ELISA % Absorbance MEAN (n = 20)” value (alachlor antibodies; Alachlor Conc. 0.2 ppb) was 78.1%. For the same compound, the “ELISA % Absorbance MEAN (n = 20)” value (alachlor antibodies; Alachlor Conc. 0.5 ppb) was 55.3%, the “ELISA % Absorbance MEAN (n = 20)” value (alachlor antibodies; Alachlor Conc. 1.0 ppb) was 37.4% and the “ELISA % Absorbance MEAN (n = 20)” value (alachlor antibodies; Alachlor Conc. 3.0 ppb) was 22.9%. For the same compound, the “ELISA % Absorbance MEAN (n = 20)” value (alachlor antibodies; Alachlor Conc. 5.0 ppb) was 17.7%, the “ELISA % Absorbance MEAN (n = 20)” value (alachlor antibodies; Alachlor Conc. 8.0 ppb) was 11.3% and the percent cross-reactivity (alachlor antibodies; IC50 of alachlor divided by IC50 of analog x 100, bleed not stated) was 100%.

With `CC(C)N(C(=O)CCl)c1ccccc1` [Propachlor, propachlor] the “% 14C Eluent (75% CH3OH)” value ([1]; 1.2 µg/2 mL human urine) was 11.0%, the “% 14C Wash (H2O)” value ([1]; 1.2 µg/2 mL human urine) was 88.0% and the “inhibition … for amidochlor” value [2] was “not”. For the same compound, the “inhibition … for metolachlor” value [3] was “not” and the “reaction (cross-reactivity) with the antibodies, in words” value (alachlor antibodies) was “little to no interaction”.
